pIC50: −log10 of the molar value. Converted amounts (≈) assume the structure as drawn.
What was measured:
W3110 strain = assay: Growth of W3110 strain with no plasmid in minimal medium M9 with AEC; type: cell-based, E. coli; conditions: W3110 strain having no plasmid
Method: (§1) A transformed strain obtained by introducing pdapA1 into a wild type E. coli W3110 strain (available from National Institute of Genetics (Mishima-shi, Shizuoka-ken, Japan)) was designated as W3110/pdapA1, and a transformed strain obtained by introducing pdapA2 into the E. coli W3110 strain was designated as W3110/pdapA2, respectively. These two transformed strains were cultivated respectively in a minimal medium M9 having the following composition to which AEC as an analog of lysine was added. The W3110 strain with no introduced plasmid was also cultivated in the same medium as a control.

GT3/pLYSC1 strain = assay: Growth of GT3/pLYSC1 on M9 media containing L-lysine or AEC; type: cell-based, E. coli; conditions: for MIC: Escherichia coli, GT3, read-out: Allotment of addition in which growth was completely suppressed; for Growth of GT3/pLYSC1: M9 agar
Method: (§2) A transformed strain obtained by introducing pLYSC1 into the AK completely deficient strain, E. coli GT3 was designated as GT3/pLYSC1, and a transformed strain obtained by introducing pLYSC2 into the E. coli GT3 was designated as GT3/pLYSC2. A considerable amount of L-lysine was added to the minimal medium M9, and the GT3/pLYSC1 strain and the GT3/pLYSC2 strain were each cultivated. Both of the GT3/pLYSC1 strain and the GT3/pLYSC2 strain harbor plasmids containing the wild type lysC, in which AKIII encoded by lysC on the plasmids is a sole AK. The wild type AKIII as the sole AK is inhibited by L-lysine in the presence of a considerable amount of L-lysine.
(§3) The GT3/pLYSC1 strain and the GT3/pLYSC2 strain were cultivated on M9 agar plate media containing various concentrations of L-lysine or AEC, respectively. Growth inhibitory concentrations by L-lysine and AEC were examined, and a selection condition was investigated for a strain harboring a plasmid containing lysC*.
(§4) In this table, + indicates growth of transformant, ± indicates a little growth, and - indicates no growth.

GT3/pLYSC2 strain = assay: Growth of GT3/pLYSC2 on M9 media containing L-lysine or AEC; type: cell-based, E. coli; conditions: for Allotment of addition up to which growth was not suppressed: GT3/pLYSC2 strain; for Allotment of addition up to which growth was not suppressed / Growth of GT3/pLYSC2: M9 agar
Method: as §2, §3, §4

W3110/pdapA1 strain = assay: Growth of W3110/pdapA1 on M9 media containing AEC; type: cell-based, E. coli
Method: as §1
(§5) The W3110/pdapA1 strain and the W3110/pdapA2 strain obtained as described above were cultivated on M9 agar plate media containing various concentrations of AEC, respectively. Growth inhibitory concentrations by AEC were examined, and a selection condition was investigated for a strain harboring a plasmid containing dapA*.
(§6) In this table, + indicates growth of transformant, and - indicates no growth.

W3110/pdapA2 strain = assay: Growth of W3110/pdapA2 on M9 media containing AEC; type: cell-based, E. coli; conditions: for Growth of W3110/pdapA2: M9 agar
Method: as §1, §5, §6

AKIII = biological target: T1, AKIII (Escherichia coli, UniProt P08660); assay: Enzyme activity of AKIII and inhibition by L-lysine (cell-free extract); type: biochemical, E. coli
T1 construct: made in house; host or cells: E. coli GT3 (AKI, II, III deficient) transformed with pLYSC1 or its mutant plasmids; cell-free extract, ammonium sulfate pellet redissolved
Excerpt: No. 24, No. 43, No. 48, No. 60, No. 80, No. 117, No. 126, No. 149, No. 150, No. 156, No. 158, No. 167, No. 169 and No. 172 were selected as representative strains of the aforementioned 14 groups. Mutant plasmids derived from pLYSC1 were recovered from each of them, and designated as pLYSC1*24, pLYSC1*43, pLYSC1*48, pLYSC1*60, pLYSC1*80, pLYSC1*117, pLYSC1*126, pLYSC1*149, pLYSC1*150, pLYSC1*156, pLYSC1*158, pLYSC1*167, pLYSC1*169 and pLYSC1*172, respectively. An AK completely deficient strain GT3 was transformed with them and the wild type pLYSC1. A cell-free extract was prepared from each of transformed strains, and the enzyme activity of AKIII was measured.
The cell-free extract (crude enzyme solution) was prepared as follows. A transformed strain was cultivated in a 2 x TY medium, and collected at an OD660 of about 0.8. Cells were washed with 0.02 M KH2 PO4 (pH 6.75)-0.03 M β-mercaptoethanol under a condition of 0° C., and the cells were disrupted by sonication (0° C., 100 W, 30 minutes×4). A disrupted cell solution was centrifuged at 33 krpm for 1 hour under a condition of 0° C. to obtain a supernatant to which ammonium sulfate was added to give 80% saturation. After centrifugation, a pellet was dissolved in 0.02 M KH2 PO4 (pH 6.75)-0.03 M β-mercaptoethanol, and stored at 0° C. overnight.
The enzyme activity of AKIII was measured in accordance with a method of Stadtman et al. (Stadtman, E. R., Cohen, G. N., LeBras, G., and Robichon-Szulmajster, H., J. Biol. Chem., 236, 2033 (1961)). Namely, a reaction solution having the following composition was incubated at 27° C. for 45 minutes, and an FeCl3 solution (2.8 N HCl 0.4 ml+12% TCA 0.4 ml+5% FeCl3 ·6H2 O/0.1 N HCl 0.7 ml) was added thereto to develop a color, and it was centrifuged followed by measurement of absorbance of a supernatant at 540 nm. The activity was indicated by an amount of hydroxamic acid generated per minute (1 U=1 μmol/min). The molar absorption coefficient was 600. Potassium aspartate was removed from the reaction solution to be used as a blank.
In measurement of the enzyme activity of AK, various concentrations of L-lysine were added to the enzyme reaction solution and the degree of inhibition by L-lysine was examined.
On the contrary, although the mutant AKIII's obtained this time had various degrees of desensitization, inhibition by L-lysine was desensitized in all of 14 species. […] The specific activity based on total protein, which might be affected by growth situations of cell and preparation of samples, was equal to or more than that of the wild type in almost all cases, and there was little problem of decrease in activity due to the introduction of mutation (Table 3). According to this fact, it was expected that an active center of AKIII was independent from a regulatory site by L-lysine with each other. In Table 3, the inhibition desensitization degree (%) refers to an AK activity in the presence of 100 mM of L-lysine compared with an AK activity in the absence of L-lysine in the reaction solution. The heat stability (%) refers to a ratio of activity maintenance after a treatment at 55° C. for 1.5 hour.

T1 sequence (P08660 2-449): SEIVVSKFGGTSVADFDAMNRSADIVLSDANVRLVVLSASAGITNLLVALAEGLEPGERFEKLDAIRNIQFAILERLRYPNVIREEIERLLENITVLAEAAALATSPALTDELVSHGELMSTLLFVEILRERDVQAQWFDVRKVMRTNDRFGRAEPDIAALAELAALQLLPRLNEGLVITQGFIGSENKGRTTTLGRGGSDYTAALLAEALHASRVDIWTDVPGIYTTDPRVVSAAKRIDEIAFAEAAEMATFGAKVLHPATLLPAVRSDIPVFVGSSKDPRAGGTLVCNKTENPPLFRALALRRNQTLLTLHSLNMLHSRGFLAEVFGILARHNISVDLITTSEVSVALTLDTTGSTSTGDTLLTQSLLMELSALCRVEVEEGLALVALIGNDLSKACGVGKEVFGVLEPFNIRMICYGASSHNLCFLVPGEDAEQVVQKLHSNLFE

With `NCCSC[C@H](N)C(=O)O` [AEC, S-2-aminoethylcysteine] the “Growth in minimal medium M9 to which AEC was added” value (“Growth … to which AEC was added” below) (W3110 strain) was “suppressed in growth”, the MIC (GT3/pLYSC1 strain) was 0.2 mM (≈ 32.8 µg/mL) and the “Growth of GT3/pLYSC1” value (GT3/pLYSC1 strain; AEC 0.2 mM) was “-”. For the same compound, the “Growth of GT3/pLYSC1” value (GT3/pLYSC1 strain; AEC 0.4 mM) was “-”, the “Growth of GT3/pLYSC1” value (GT3/pLYSC1 strain; AEC 0.8 mM) was “-” and the “Growth of GT3/pLYSC1” value (GT3/pLYSC1 strain; AEC 1.5 mM) was “-”. The “Growth of GT3/pLYSC1” value (GT3/pLYSC1 strain; AEC 3 mM) was “-”, the “Growth of GT3/pLYSC1” value (GT3/pLYSC1 strain; AEC 6 mM) was “-” and the “Growth of GT3/pLYSC1” value (GT3/pLYSC1 strain; AEC 12 mM) was “-”. For the same compound, the “Growth of GT3/pLYSC1” value (GT3/pLYSC1 strain; AEC 25 mM) was “-”, the “Growth of GT3/pLYSC1” value (GT3/pLYSC1 strain; AEC 50 mM) was “-” and the “Allotment of addition up to which growth was not suppressed” value (GT3/pLYSC2 strain) was 3 mM. For the same compound, the “Growth of GT3/pLYSC2” value (GT3/pLYSC2 strain; AEC 0.2 mM) was “±”, the “Growth of GT3/pLYSC2” value (GT3/pLYSC2 strain; AEC 0.4 mM) was “±” and the “Growth of GT3/pLYSC2” value (GT3/pLYSC2 strain; AEC 0.8 mM) was “±”. For the same compound, the “Growth of GT3/pLYSC2” value (GT3/pLYSC2 strain; AEC 1.5 mM) was “±”, the “Growth of GT3/pLYSC2” value (GT3/pLYSC2 strain; AEC 3 mM) was “±” and the “Growth of GT3/pLYSC2” value (GT3/pLYSC2 strain; AEC 6 mM) was “-”. The “Growth of GT3/pLYSC2” value (GT3/pLYSC2 strain; AEC 12 mM) was “-”, the “Growth of GT3/pLYSC2” value (GT3/pLYSC2 strain; AEC 25 mM) was “-” and the “Growth of GT3/pLYSC2” value (GT3/pLYSC2 strain; AEC 50 mM) was “-”. For the same compound, the MIC (W3110/pdapA1 strain; Escherichia coli, W3110/pdapA1 strain, M9 agar, read-out: Allotment of addition in which growth was suppressed) was 30 mM (≈ 4930 µg/mL), the “Growth of W3110/pdapA1” value (W3110/pdapA1 strain; M9 agar, AEC 2 mM) was “+” and the “Growth of W3110/pdapA1” value (W3110/pdapA1 strain; M9 agar, AEC 4 mM) was “+”. For the same compound, the “Growth of W3110/pdapA1” value (W3110/pdapA1 strain; M9 agar, AEC 8 mM) was “+”, the “Growth of W3110/pdapA1” value (W3110/pdapA1 strain; M9 agar, AEC 15 mM) was “+” and the “Growth of W3110/pdapA1” value (W3110/pdapA1 strain; M9 agar, AEC 30 mM) was “-”. For the same compound, the “Growth of W3110/pdapA1” value (W3110/pdapA1 strain; M9 agar, AEC 60 mM) was “-”, the “Growth of W3110/pdapA1” value (W3110/pdapA1 strain; M9 agar, AEC 125 mM) was “-” and the “Growth of W3110/pdapA1” value (W3110/pdapA1 strain; M9 agar, AEC 250 mM) was “-”. The “Growth … to which AEC was added” value (W3110/pdapA1 strain; W3110/pdapA1) was “suppressed in growth”, the MIC (W3110/pdapA2 strain; Escherichia coli, read-out: Allotment of addition in which growth was suppressed) was 15 mM (≈ 2460 µg/mL) and the “Growth of W3110/pdapA2” value (W3110/pdapA2 strain; AEC 2 mM) was “+”. For the same compound, the “Growth of W3110/pdapA2” value (W3110/pdapA2 strain; AEC 4 mM) was “+”, the “Growth of W3110/pdapA2” value (W3110/pdapA2 strain; AEC 8 mM) was “+” and the “Growth of W3110/pdapA2” value (W3110/pdapA2 strain; AEC 15 mM) was “-”. The “Growth of W3110/pdapA2” value (W3110/pdapA2 strain; AEC 30 mM) was “-”, the “Growth of W3110/pdapA2” value (W3110/pdapA2 strain; AEC 60 mM) was “-” and the “Growth of W3110/pdapA2” value (W3110/pdapA2 strain; AEC 125 mM) was “-”. For the same compound, the “Growth of W3110/pdapA2” value (W3110/pdapA2 strain; AEC 250 mM) was “-” and the “Growth … to which AEC was added” value (W3110/pdapA2 strain; W3110/pdapA2) was “suppressed in growth”.
Compound `NCCCC[C@H](N)C(=O)O` [L-lysine] has a pIC50 (AKIII) of ~3.35, an inhibition at 5000 µM (AKIII; read-out: Inhibition of AKIII) of ~100% and an MIC (GT3/pLYSC1 strain) of 0.2 mM (≈ 29.2 µg/mL). For the same compound, the “Growth in minimal medium M9 with a considerable amount of L-lysine” value (GT3/pLYSC1 strain; GT3/pLYSC1) was “suppressed in growth”, the “Growth of GT3/pLYSC1” value (GT3/pLYSC1 strain; L-lysine 0.2 mM) was “-” and the “Growth of GT3/pLYSC1” value (GT3/pLYSC1 strain; L-lysine 0.4 mM) was “-”. For the same compound, the “Growth of GT3/pLYSC1” value (GT3/pLYSC1 strain; L-lysine 0.8 mM) was “-”, the “Growth of GT3/pLYSC1” value (GT3/pLYSC1 strain; L-lysine 1.5 mM) was “-” and the “Growth of GT3/pLYSC1” value (GT3/pLYSC1 strain; L-lysine 3 mM) was “-”. The “Growth of GT3/pLYSC1” value (GT3/pLYSC1 strain; L-lysine 6 mM) was “-”, the “Growth of GT3/pLYSC1” value (GT3/pLYSC1 strain; L-lysine 12 mM) was “-” and the “Growth of GT3/pLYSC1” value (GT3/pLYSC1 strain; L-lysine 25 mM) was “-”. The “Growth of GT3/pLYSC1” value (GT3/pLYSC1 strain; L-lysine 50 mM) was “-”, the “Growth of GT3/pLYSC1” value (GT3/pLYSC1 strain; L-lysine 100 mM) was “-” and the “Growth of GT3/pLYSC1” value (GT3/pLYSC1 strain; L-lysine 200 mM) was “-”. The “Growth in minimal medium M9 with a considerable amount of L-lysine” value (GT3/pLYSC2 strain; GT3/pLYSC2) was “suppressed in growth”, the “Allotment of addition up to which growth was not suppressed” value (GT3/pLYSC2 strain) was 100 mM and the “Growth of GT3/pLYSC2” value (GT3/pLYSC2 strain; L-lysine 0.2 mM) was “+”. The “Growth of GT3/pLYSC2” value (GT3/pLYSC2 strain; L-lysine 0.4 mM) was “+”, the “Growth of GT3/pLYSC2” value (GT3/pLYSC2 strain; L-lysine 0.8 mM) was “+” and the “Growth of GT3/pLYSC2” value (GT3/pLYSC2 strain; L-lysine 1.5 mM) was “+”. The “Growth of GT3/pLYSC2” value (GT3/pLYSC2 strain; L-lysine 3 mM) was “+”, the “Growth of GT3/pLYSC2” value (GT3/pLYSC2 strain; L-lysine 6 mM) was “+” and the “Growth of GT3/pLYSC2” value (GT3/pLYSC2 strain; L-lysine 12 mM) was “+”. For the same compound, the “Growth of GT3/pLYSC2” value (GT3/pLYSC2 strain; L-lysine 25 mM) was “+”, the “Growth of GT3/pLYSC2” value (GT3/pLYSC2 strain; L-lysine 50 mM) was “+” and the “Growth of GT3/pLYSC2” value (GT3/pLYSC2 strain; L-lysine 100 mM) was “±”. The “Growth of GT3/pLYSC2” value (GT3/pLYSC2 strain; L-lysine 200 mM) was “-”.

Source: patent US5989875A, “Method of process for producing L-lysine by fermentation” (priority 1995, dated 1999)
